Experimental data as given in PMC6010122 (Journal of Enzyme Inhibition and Medicinal Chemistry, 2017).
Where two headings read alike, the source gives them in different places. Values belong to the compound of their own block, whether it stands above or below them.

Experiments:
K562 xenograft [1] = assay: Subcutaneous K562 xenograft model of human CML
U937 cells = assay: Cellular antiproliferation assay (CCK-8), U937; assay type: cell-based; settings: Homo sapiens, read-out: Antiproliferation IC50, U937
K562 cells = assay: Cellular antiproliferation assay (CCK-8), K562; assay type: cell-based; settings: Homo sapiens, read-out: Antiproliferation IC50, K562
MOLT-4 cells = assay: Cellular antiproliferation assay (CCK-8), MOLT-4; assay type: cell-based; settings: Homo sapiens, read-out: Antiproliferation IC50, MOLT-4
Ba/F3^T315I cells = assay type: cell-based, murine; settings: Mus musculus, read-out: Antiproliferation IC50, Ba/F3^T315I
Ba/F3^WT cells = assay: Cellular antiproliferation assay (CCK-8), Ba/F3 expressing Bcr-Abl^WT; assay type: cell-based, murine; settings: Mus musculus, read-out: Antiproliferation IC50, Ba/F3^WT
K562R (Q252H) cells = assay: Cellular antiproliferation assay (CCK-8), imatinib-resistant K562R (Q252H); assay type: cell-based; settings: Homo sapiens, K-562R, read-out: Antiproliferation IC50, K562R (Q252H)
[2] = system: activation of Bcr-Abl, Crkl and STAT5 in K562 CML cells; assay: Western blot of Bcr-Abl signaling in K562 cells; assay type: cell-based, human; settings: 4.0 h treatment
Procedure: The Western blot analysis was carried out by following the protocol described previously. Briefly, after the indicated treatment, cell lysates were collected, dissolving cells in 1× SDS sample lysis buffer. After being sonicated and boiled, the supernatant of the cell lysate was used for Western blot analysis. Cell lysates were loaded to 8–12% SDS-PAGE and separated by electrophoresis. Separated proteins were then electrically transferred to a PVDF film. After being blocked with 1× TBS containing 0.1% Tween-20, and 5% nonfat milk, the film was incubated with corresponding primary antibody followed by HRP-conjugated secondary antibody. The protein lanes were visualized using ECL Western Blotting Detection Kit (GE Healthcare, Piscataway, NJ).
Figure 3. […] Cells were treated with GZD856 at the indicated concentrations for 4.0 h, and whole cell lysates were then subjected to Western blot analyses. The results represent three independent experiments.

K562 xenograft [3] = settings: mouse, in vivo, po, 10 mg/kg/day
Bcr-Abl^WT = Bcr-Abl^WT (Homo sapiens, UniProt P00519); assay type: biochemical
[4] = system: HFL-1 (human embryonic lung fibroblasts); design: method as in PMID 26940138; settings: human embryonic lung fibroblasts ref 26; read-out: Antiproliferative IC50, HFL-1 non-cancer cells; cited from earlier work

Sequence of Bcr-Abl^WT (P00519 27-1130): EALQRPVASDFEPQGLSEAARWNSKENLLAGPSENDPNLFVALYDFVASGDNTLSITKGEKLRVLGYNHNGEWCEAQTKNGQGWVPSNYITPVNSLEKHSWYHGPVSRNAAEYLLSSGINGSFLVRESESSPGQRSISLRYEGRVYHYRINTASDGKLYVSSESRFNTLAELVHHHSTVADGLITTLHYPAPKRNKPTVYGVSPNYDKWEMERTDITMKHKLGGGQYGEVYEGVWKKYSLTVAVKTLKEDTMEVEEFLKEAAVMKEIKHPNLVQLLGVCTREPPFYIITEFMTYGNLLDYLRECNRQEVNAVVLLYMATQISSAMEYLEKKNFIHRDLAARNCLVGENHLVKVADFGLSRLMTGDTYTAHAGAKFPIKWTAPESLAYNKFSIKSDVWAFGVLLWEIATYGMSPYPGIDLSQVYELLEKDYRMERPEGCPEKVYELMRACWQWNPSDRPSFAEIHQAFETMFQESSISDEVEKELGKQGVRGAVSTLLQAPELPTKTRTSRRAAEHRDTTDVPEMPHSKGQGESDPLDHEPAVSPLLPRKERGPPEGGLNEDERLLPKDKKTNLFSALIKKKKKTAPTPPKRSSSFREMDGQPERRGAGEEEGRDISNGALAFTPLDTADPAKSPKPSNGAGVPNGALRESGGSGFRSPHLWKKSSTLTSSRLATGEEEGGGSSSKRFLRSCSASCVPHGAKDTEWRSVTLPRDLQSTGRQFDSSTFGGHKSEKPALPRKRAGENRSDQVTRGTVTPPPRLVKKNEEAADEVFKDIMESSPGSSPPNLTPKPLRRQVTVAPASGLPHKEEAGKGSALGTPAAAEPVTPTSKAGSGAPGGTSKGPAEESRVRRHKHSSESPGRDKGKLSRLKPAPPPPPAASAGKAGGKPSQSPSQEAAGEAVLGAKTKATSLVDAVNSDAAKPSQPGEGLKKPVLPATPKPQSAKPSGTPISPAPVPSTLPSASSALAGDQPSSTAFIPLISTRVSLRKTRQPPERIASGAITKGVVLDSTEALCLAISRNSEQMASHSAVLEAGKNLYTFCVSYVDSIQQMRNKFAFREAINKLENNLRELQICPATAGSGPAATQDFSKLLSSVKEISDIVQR

Structure (SMILES): Cc1ccc(NC(=O)c2ccc(CN3CCN(C)CC3)cc2)cc1Nc1nccc(-c2cccnc2)n1 [Imatinib, imatinib]
Antitumor effect on tumor (K562 xenograft [1]; K562 xenograft, oral 50 mg/kg/day): only induced tumor stasis

Structure (SMILES): Cc1cn(-c2cc(NC(=O)c3ccc(C)c(Nc4nccc(-c5cccnc5)n4)c3)cc(C(F)(F)F)c2)cn1 [Nilotinib]
IC50 (U937 cells; U-937, 72 h): 9520 nM | IC50 (Ba/F3^T315I cells; BaF3, 72 h): 1460 nM | IC50 (K562 cells; K562, 72 h): 6.5 nM | IC50 (Ba/F3^WT cells; BaF3, 72 h): 22 nM | IC50 (MOLT-4 cells; MOLT-4, 72 h): 20400 nM | IC50 (K562R (Q252H) cells; 72 h): 350 nM

Structure (SMILES): Cc1ccc(C(=O)Nc2ccc(CN3CCN(C)CC3)c(C(F)(F)F)c2)cc1C#Cc1cnc2ccnn2c1 [GZD856, 4-Methyl-N-(4-((4-methylpiperazin-1-yl)methyl)-3-(trifluoromethyl)phenyl)-3-(pyrazolo[1,5-a]pyrimidin-6-ylethynyl)benzamide]
Suppression of activation of Bcr-Abl and downstream Crkl and STAT5 [2]: efficiently suppressed the activation | Tolerability during treatment (K562 xenograft [3]): well tolerated with no mortality | IC50 (Ba/F3^T315I cells; BaF3, CCK-8, 72 h): 10.8 nM | IC50 (Bcr-Abl^WT): 19.9 nM | IC50 (K562 cells; K562, CCK-8, 72 h): 2.2 nM | IC50 (Ba/F3^WT cells; BaF3, CCK-8, 72 h): 0.64 nM | IC50 [4]: 6.78 µM | Body loss relative to vehicle-matched controls (K562 xenograft [1]; K562 xenograft mice, oral 10 mg/kg/day, during the treatment): < 5% | Tumor recurrence after cessation of treatment (K562 xenograft [1]; K562 xenograft, 10 mg/kg/day, 16 days of dosing, following 7 days): no sign of tumor recurrence | Antitumor effect on tumor (K562 xenograft [1]; K562 xenograft, oral 10 mg/kg/day, after 8 days of treatment): almost completely eradicated the tumor | IC50 (K562R (Q252H) cells; CCK-8, 72 h): 67 nM

The next lines start with the values.

IC50 (U937 cells; U-937, 72 h): 1 nM | IC50 (K562 cells; K562, 72 h): 0.5 nM | IC50 (MOLT-4 cells; MOLT-4, 72 h): 7.8 nM
Structure (SMILES): Cc1ccc(C(=O)Nc2ccc(CN3CCN(C)CC3)c(C(F)(F)F)c2)cc1C#Cc1cnc2cccnn12 [Ponatinib, 3-[2-(imidazo[1,2-b]pyridazin-3-yl)ethynyl]-4-methyl-N-{4-[(4-methyl-piperazin-1-yl)methyl]-3-(trifluoromethyl)phenyl}benzamide]

IC50 (U937 cells; U-937, CCK-8, 72 h, negative for Bcr-Abl expression): 2.3 nM | IC50 (K562 cells; K562, CCK-8, 72 h): 5.1 nM | IC50 (MOLT-4 cells; MOLT-4, CCK-8, 72 h, negative for Bcr-Abl expression): 2.7 nM | IC50 (K562R (Q252H) cells; CCK-8, 72 h): 7 nM
Structure (SMILES): CC(=O)O[C@H]1C(=O)[C@@]2(C)[C@H]([C@H](OC(=O)c3ccccc3)[C@]3(O)C[C@H](OC(=O)[C@H](O)[C@@H](NC(=O)c4ccccc4)c4ccccc4)C(C)=C1C3(C)C)[C@]1(OC(C)=O)CO[C@@H]1C[C@@H]2O [Taxol]
